In US20210068659A1, “Use of Octafluorocyclobutane for Lung Imaging” (Lakehead University, priority 2019, published 2021):

Tests used:
[1] = Measured relaxation parameters (19F MRI relaxation times) of pure gases and gas-O2 mixtures in vitro; type: physicochemical; details: for T2′ / T1: in vitro, pure gas or gas-O2 breathing mixture; for T1: spin-lattice relaxation time
Source text: The relaxation times for OFCB-O2 mixture In Vivo should be measured experimentally. We measured the relaxation times for pure OFCB and OFCB-O2 mixture in vitro.
While we were not first who measured the relaxation times for pure OFCB, to our knowledge, we are the first who characterized the OFCB-O2 breathing mixture.

[2] = Specific Absorption Rate (SAR) / scan safety inferred from the longer spin-lattice relaxation time; details: summary statement
Source text: While the spin-lattice relaxation time is 60% longer for OFCB compared to PFP, which limits the potential number of signal averages, the longer spin-lattice relaxation means that there are a smaller number of radio pulses with OFCB. This means that the Specific Absorption Rate (SAR) is lower for OFCB-O2 scans. […] The lower SAR value of OFCB scans means that ^19F OFCB lung MRI is safer for patients than MRI scans acquired using other inert fluorinated gases.

FC1(F)C(F)(F)C(F)(F)C1(F)F [OFCB, octafluorocyclobutane]
spin-lattice relaxation time longer compared to PFP ([1]; OFCB compared to PFP): 60%
T2′ [1]: 10.5 ± 1.8 ms
T1 [1]: 27.9 ± 0.8 ms
safer compared to PFP [2]: 60%

FC(F)(F)C(F)(F)C(F)(F)F [PFP, perfluoropropane, reference compound]
T2′ [1]: 6.26 ± 0.27 ms
T1 [1]: 18.6 ± 0.4 ms
